For nine molecules, IC50 results are on record in BindingDB's records for doi:10.7270/Q29G5K5D (Cc_Pmlsc, 2007).

As usually defined, the IC50 is the point on the concentration scale where inhibition reaches its midpoint. Low values mean higher potency, high ones lower potency.

The assay concerns the target T1, Dual specificity protein phosphatase 1 (Homo sapiens, UniProt P28562).
T1 sequence (P28562 whole entry): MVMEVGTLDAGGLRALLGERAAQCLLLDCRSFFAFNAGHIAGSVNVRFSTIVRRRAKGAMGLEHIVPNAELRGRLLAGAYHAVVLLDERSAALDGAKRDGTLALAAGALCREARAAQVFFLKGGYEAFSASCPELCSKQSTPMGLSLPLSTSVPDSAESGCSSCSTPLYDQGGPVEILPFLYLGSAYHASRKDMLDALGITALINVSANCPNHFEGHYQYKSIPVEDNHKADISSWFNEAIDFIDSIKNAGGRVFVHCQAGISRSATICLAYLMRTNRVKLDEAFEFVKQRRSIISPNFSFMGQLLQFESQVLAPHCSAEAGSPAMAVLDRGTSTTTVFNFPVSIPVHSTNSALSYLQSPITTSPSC
Put plainly: MKP-1 phosphatase inhibitors, SAR follow-up, biochemical, in vitro (AID 579). Particulars: pH 7; 23 °C.

Molecule `CC(C)Cn1c(N)c(C(=O)CCl)c(=O)n(C)c1=O` [6-amino-5-(2-chloro-1-oxoethyl)-3-methyl-1-(2-methylpropyl)pyrimidine-2,4-dione] showed an IC50 above 50 µM. As to `NC(=O)NCc1ccccc1` [(phenylmethyl)urea], the 50% inhibitory concentration (IC50) was above 50 µM.

Regarding `CN(C)C=Nc1cc(=O)[nH]c(=O)n1CC1CC1` [CC-PMLSC- DMA-P139], the 50% inhibitory concentration (IC50) was above 50 µM. The value for `CN(C)/C=N/c1cc(=O)n(C)c(=O)n1Cc1ccccc1` [CC-PMLSC-DMA-P129] was above 50 µM. To `CN(C)/C=N/c1cc(=O)n(Cc2ccccc2)c(=O)n1C` [CC-PMLSC-DMA-P131] belongs above 50 µM; to `CN(C)/C=N/c1cc(=O)n(C)c(=O)n1CC1CC1` [CC-PMLSC-DMA-P142], above 50 µM; to `CN(C)C=Nc1cc(=O)[nH]c(=O)n1Cc1ccccc1` [N'-[2,6-dioxo-3-(phenylmethyl)-4-pyrimidinyl]-N,N-dimethylmethanimidamide], above 50 µM. The value for `CN(C)C=Nc1cc(=O)[nH]c(=O)n1C` [N,N-dimethyl-N'-(3-methyl-2,6-dioxo-4-pyrimidinyl)methanimidamide] was above 50 µM; that for `Cn1c(=O)c(C(=O)COC(=O)c2cc(-c3ccco3)nc3ccccc23)c(N)n(Cc2ccccc2)c1=O` [[2-(6-amino-1-benzyl-3-methyl-2,4-dioxopyrimidin-5-yl)-2-oxoethyl] 2-(furan-2-yl)quinoline-4-carboxylate] was 13.4 µM.
